Measured values published in article PMC12722636, “Structural Pharmacology of Bufotenine Derivatives in Activating the 5-HT1A Receptor for Therapeutic Potential in Depression and Anxiety” (Research, 2025).
Like-named read-outs stand apart in the source and are kept apart here.

Legend:
5-HT2A receptor = molecular target: T1, 5-HT2A receptor (Homo sapiens, UniProt P28223); assay: cell-based; format: cell-based
T1 construct: expressed in transfected cells; host or cells: HEK 293T
Excerpt: We evaluated the impact of bufotenine derivatives on 6 serotonin receptor subtypes associated with depression (5-HT1A, 5-HT1B, 5-HT1D, 5-HT2A, 5-HT2C, and 5-HT7) using the GloSensor cAMP assay to measure Gi and Gs activation and the IP-One assay to assess Gq activation, thereby detecting signaling activity at each receptor. […] We conducted a thorough pharmacological analysis of bufotenine derivatives to evaluate their hallucinogenic potential via 5-HT2AR activation, comparing their receptor binding profiles and functional activities at 5-HT1AR and 5-HT2AR subtypes.
The downstream Gαq signaling of 5-HT2A was evaluated using the IP-One HTRF assay (Cisbio). HEK 293T cells were cultured in DMEM with 10% FBS and 1% penicillin–streptomycin at 37 °C, 5% CO2. After 24 h of transfection, cells were resuspended in stimulation buffer (8 × 10^5 cells/ml) and plated at 7 μl/well into 384-well plates. Ligands diluted in buffer (7 μl) were added and incubated for 1 h at 37 °C. IP-One-d2 and anti-IP-One cryptate (3 μl each) were then added, followed by 30-min incubation at room temperature. HTRF signals were measured using an EnVision reader (PerkinElmer).
(§3) An evaluation of the concentration–response curves was carried out using a logistic equation with 3 parameters. Calculations of pEC50 values were performed with the use of the sigmoid 3-parameter equation. In order to assess the significance, a 1-way or 2-way analysis of variance was conducted, followed by Bonferroni’s or Dunnett’s post hoc test. Differences were considered significant when P < 0.05 and are shown as *P < 0.05, **P < 0.01, or ***P < 0.001.

CUMS model mice [1] = assay: Open-field test (OFT) in CUMS depression model; settings: 15 mg/kg i.p. for 1 week; for OFT time spent in the center / OFT total distance traveled: CUMS mice, regardless of 5-HT1AR knockdown, Fig. 6D
CUMS model mice [2] = assay: Sucrose preference test (SPT) in CUMS depression model; settings: 15 mg/kg i.p. for 1 week, versus CUMS model, Fig. 6C
[3] = system: PCPA-induced mouse model of depression and anxiety; assay: Sucrose preference test (SPT) in PCPA model; format: in vivo, C57BL/6 male mice; settings: for Sucrose preference: PCPA model, 5-OH-DMT 15 mg/kg i.p. or WAY100635 1 mg/kg i.p. for 3 d, versus control or model group, Fig. 6H
Protocol: (§1) Mice in the control group were fed with saline solution containing 0.1% DMSO (vehicle) for 3 d. Mice that were injected subcutaneously with 150 mg/kg PCPA twice daily for 3 d developed symptoms of depression. […] For WAY100635 treatment, mice were injected intraperitoneally with 1 mg/kg WAY100635 for 3 d. […] Then, mice were tested for all behaviors.

[4] = system: PCPA-induced mouse model of depression and anxiety; assay: Forced swimming test (FST) in PCPA model; format: in vivo, C57BL/6 male mice; settings: for Immobility time in FST: PCPA model, 5-OH-DMT 15 mg/kg i.p. or WAY100635 1 mg/kg i.p. for 3 d, versus control or model group, Fig. 6G
Protocol: as §1

[5] = system: PCPA-induced mouse model of depression and anxiety; assay: Open-field test (OFT) in PCPA model; format: in vivo, C57BL/6 male mice; settings: for OFT time spent in center / OFT total distance traveled: PCPA model, 5-OH-DMT 15 mg/kg i.p. or WAY100635 1 mg/kg i.p. for 3 d, versus control or PCPA mice, Fig. 6I
Protocol: as §1

mice [6] = assay: Horizontal locomotor activity (HLA), side effect detection; format: in vivo, C57BL/6 male mice; settings: 25 mg/kg i.p., recorded 30 min, in contrast to 5-MeO-DMT, Fig. S10
Protocol: (§2) Then, HTR and HLA were immediately tested. Mice were placed into the observation arena (25 × 25 × 40 cm) under low-light conditions. The number of head-twitch events and total distance were respectively recorded for 10 and 30 min. For the HTR test, the number of head twitches was examined by 2 observers blinded to the treatments via video recordings. For the HLA test, the total distance traveled was measured by using tracking software to process video recordings.

5-HT1A receptor = molecular target: T2, 5-HT1A receptor (Homo sapiens, UniProt P08908); assay: GloSensor cAMP assay, 5-HT1A Gi signaling in HEK 293T cells; format: cell-based
T2 sequence (P08908 1-422): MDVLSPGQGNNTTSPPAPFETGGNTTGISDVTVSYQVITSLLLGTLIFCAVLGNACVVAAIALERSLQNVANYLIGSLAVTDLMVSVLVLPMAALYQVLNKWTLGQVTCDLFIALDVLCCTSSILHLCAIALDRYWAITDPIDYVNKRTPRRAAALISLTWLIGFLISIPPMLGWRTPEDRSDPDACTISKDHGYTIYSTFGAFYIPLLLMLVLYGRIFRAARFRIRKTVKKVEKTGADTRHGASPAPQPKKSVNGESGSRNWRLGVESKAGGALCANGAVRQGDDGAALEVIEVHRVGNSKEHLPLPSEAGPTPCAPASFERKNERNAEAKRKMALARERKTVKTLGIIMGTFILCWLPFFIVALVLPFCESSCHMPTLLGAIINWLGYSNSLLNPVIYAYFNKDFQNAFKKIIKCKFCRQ
Protocol: (§4) The downstream Gαi signaling of 5-HT1A was assessed using the GloSensor cAMP assay (Promega). HEK 293T cells were cultured in DMEM with 10% FBS and 1% penicillin–streptomycin at 37 °C and 5% CO2. Cells were transfected with 5-HT1A constructs and the GloSensor-22F biosensor at a 3:2 ratio. After 24 h, cells were resuspended in CO2-independent medium with 2% GloSensor reagent and plated at 3.5 × 10^5 cells/ml (20 μl/well) into 384-well plates. After 1-h incubation, forskolin (1 μM) and test ligands were added, and luminescence was immediately recorded using an EnVision plate reader (PerkinElmer).
as §3

mice [7] = assay: Head-twitch response (HTR), side effect detection; format: in vivo, C57BL/6 male mice; settings: 25 mg/kg i.p., recorded 10 min, in contrast to 5-MeO-DMT, Fig. S10
Protocol: as §2

5-HT1A A365^6.55F mutant = assay: GloSensor cAMP assay on 5-HT1A mutant A365F; settings: mutant versus WT 5-HT1A, fold less potent, Fig. S7E
Protocol: In order to examine the underlying mechanism of ligand selectivity, we introduced a mutation at position A365^6.55, replacing it with phenylalanine.
as §4
WT or mutant were transfected into HEK293T cells and Glosenser cAMP assay were measured to reflect the activity of 5-HT1AR. The response data was normalized by WT receptor within each individual experiment, with the basal activity for WT as 0, while the fitted Emax of WT as 100. Three independent experiments were conducted (n=3).

[8] = system: PCPA-induced mouse model of depression and anxiety; assay: Tail suspension test (TST) in PCPA model; format: in vivo, C57BL/6 male mice; settings: for Immobility time in TST: PCPA model, 5-OH-DMT 15 mg/kg i.p. or WAY100635 1 mg/kg i.p. for 3 d, versus control or model group, Fig. 6F
Protocol: as §1

[9] = PCPA + 5-OH-DMT 15 mg/kg + WAY100635 1 mg/kg i.p. versus PCPA + 5-OH-DMT

T1 sequence (P28223 whole entry): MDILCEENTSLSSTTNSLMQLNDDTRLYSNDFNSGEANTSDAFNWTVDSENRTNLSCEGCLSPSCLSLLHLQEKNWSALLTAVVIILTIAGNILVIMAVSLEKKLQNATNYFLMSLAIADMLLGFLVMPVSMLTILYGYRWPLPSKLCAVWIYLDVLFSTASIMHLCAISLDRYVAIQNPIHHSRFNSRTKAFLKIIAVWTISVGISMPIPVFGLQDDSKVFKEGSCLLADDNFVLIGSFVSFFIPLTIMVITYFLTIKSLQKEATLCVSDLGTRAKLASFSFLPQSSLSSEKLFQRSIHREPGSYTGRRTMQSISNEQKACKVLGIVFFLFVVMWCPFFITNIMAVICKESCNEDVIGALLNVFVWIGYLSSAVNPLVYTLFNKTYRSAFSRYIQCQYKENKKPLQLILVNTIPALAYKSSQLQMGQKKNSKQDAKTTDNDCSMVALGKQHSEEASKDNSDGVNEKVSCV

## COc1ccc2[nH]cc(CCN(C)C)c2c1 [Compound 5-MeO-DMT, 5-methoxy-N,N-dimethyltryptamine]
5-HT2A receptor; ratio of EC50 values, times more potent
  Potency at 5-HT2AR compared to 5-OH-DMT: 100 times
CUMS model mice [1]
  OFT time spent in the center: increased
  OFT total distance traveled: increased
CUMS model mice [1]; CUMS, sh-5-HT1AR versus NC mice
  OFT total distance after 5-HT1AR was knocked down: reduced total distance
CUMS model mice [2]
  Sucrose preference: significantly counteract the reduction in sucrose preference induced by CUMS

## CN(C)CCc1c[nH]c2ccc(O)cc12 [Compound 5-OH-DMT, 5-hydroxy-N,N-dimethyltryptamine]
5-HT2A receptor; 5-HT2A relative to 5-HT1A, times lower, Fig. 1A
  Drop in potency with 5-HT2A: roughly 10 times
CUMS model mice [1]
  OFT time spent in the center: increased
  OFT total distance traveled: increased
[3]; [9]
  Sucrose preference, with addition of WAY100635: this increase was reversed by WAY100635
[3]
  Sucrose preference: increased sucrose preference
[4]; [9]
  Immobility time in FST, with addition of WAY100635: prolonged the immobility time
[4]
  Immobility time in FST: shorter immobility durations
[5]; [9]
  OFT time spent in the center, with administration of WAY100635: significantly recovered these changes
  OFT total distance, with administration of WAY100635: significantly recovered these changes
[5]
  OFT time spent in center: dramatically increased
  OFT total distance traveled: dramatically increased
Mice [6]
  Horizontal locomotor activity (HLA), total distance: somewhat reduced
5-HT1A receptor
  EC50: 0.1 µM
Mice [7]
  Head-twitch response (HTR): somewhat reduced
5-HT1A A365^6.55F mutant
  Loss in potency at A365^6.55F mutant: around 1,000 fold
CUMS model mice [2]
  Sucrose preference: significantly counteract the reduction in sucrose preference induced by CUMS
[8]; [9]
  Immobility time in TST, with addition of WAY100635: prolonged the immobility time
[8]
  Immobility time in TST: shorter immobility durations

## C[N+](C)(C)CCc1c[nH]c2ccc([O-])cc12 [Compound 5-OH-TMT, 5-hydroxy-N,N,N-dimethyltryptamine]
5-HT2A receptor
  EC50: 10 µM
5-HT1A receptor; GloSensor cAMP, Gi activation, HEK 293T, Fig. 1A, read-out: EC50 at 5-HT1AR
  EC50: 10 µM

## COc1ccccc1N1CCN(CCN(C(=O)C2CCCCC2)c2ccccn2)CC1 [WAY100635, reference compound]
[3]
  Sucrose preference: reduced sucrose preference
[4]
  Immobility time in FST: significantly increased immobility time
[5]
  OFT time spent in center: less time spent in center
  OFT total distance traveled: less total distance traveled
[8]
  Immobility time in TST: significantly increased immobility time
